Patent publication US20260063641A1, “COMPOSITIONS AND METHODS FOR LABELING AND DETECTING BINDING PARTNERS” (UNIVERSITY OF UTAH RESEARCH FOUNDATION, priority 2022, published 2026)

How the values were obtained:
NLuc-FKBP12F36V = target: T1, NLuc-FKBP12F36V (Homo sapiens, UniProt P62942, F37V); experiment: FKBP12F36V cellular target engagement assay (competition with dTAG-13, NLuc/FLuc signal); type: cell-based; conditions: mean±S.D. of n=3 technical replicates, FIG. 4D-F
T1 construct: expressed in transfected cells
From the text: This method, named the biotin targeting chimera (BioTAC) system, uses bifunctional molecules composed of a compound-of-interest linked to selective FKBP12F36V recruiter orthoAP1867, to recruit a ligandable proximity labeling enzyme (mTurbo-FKBP12F36V) to compound-bound complexes enabling their biotinylation and subsequent affinity purification (FIG. TA-B). To benchmark the BioTAC system for accurate detection of the direct targets of ligands the well-characterized BET protein inhibitor (+)-JQ1, which potently binds BRD2, BRD3 and BRD4 (as well as the testes-specific BET protein BRDT), was selected as a test case. A series of bifunctional molecules consisting of (+)-JQ1 conjugated to […] were synthesized via a variable linker (FIG. 1B, FIG. 4A-C). (+)-JQ1-bifunctional molecule cell permeability was measured using an FKBP12F36V cellular target engagement assay adapted from Nabet et. al Nat Commun 11, 4687 (2020). Briefly, FKBP12F36V binding molecules compete with an FKBP12F36V targeting PROTAC (dTAG-13), for NLuc-FKBP12F36V occupancy, rescuing degradation and resulting in an increase in NLuc/FLuc (control) signal relative to DMSO-treated cells. All synthesized compounds were comparably cell permeable (FIG. 4D-E).

BRD4 = target: T2, BRD4 (Homo sapiens, UniProt O60885); experiment: BioTAC proximity labeling, streptavidin pulldown and western blot for BRD4; type: cell-based; conditions: HEK293 transiently transfected with miniTurbo-FKBP12F36V, 100 μM biotin, 30 min time point
T2 construct: host or cells: HEK293 transiently transfected with the BioTAC plasmid
Protocol: Next bifunctional molecule guided-proximity labeling experiments were performed using validated reagents. HEK293 cells transiently transfected with mTurbo-FKBP12F36V were treated with 100 μM biotin, 1 μM bifunctional (+)-JQ1 recruiters, and variable concentrations of free (+)-JQ1 to off-compete the bifunctional molecule and rescue biotinylation. Biotinylated proteins were isolated from cell lysates via streptavidin bead pulldown and analyzed by western blot for BRD4, a primary target of (+)-JQ1.
0.6 million HEK293 cells were plated into wells containing 1 mL of complete media (DMEM, 10% FBS, 1% pen/strep) and incubated overnight. Cells were transiently transfected with 100 μL of OptiMEM media containing 1 μg of BioTAC plasmid and 3 μL of TransIT-2020 transfection reagent (Mirus, MIR5400) for 24 hr. Following a media change, cells were pre-treated with parental molecules or DMSO for 10 min, then treated with bifunctional compound for 10 min, and finally labeled in 100 μM biotin for the indicated time. Cells were washed twice with DPBS then harvested into 1.5 mL tubes. […] Protein concentration was determined by BCA assay (Thermo, 23225), then 100 ug protein was rotated overnight at 4° C. with 8 μL of streptavidin magnetic beads (Thermo, 88817) that had been prewashed twice in RIPA lysis buffer. […]

T1 sequence (P62942 2-108 F37V limits assumed): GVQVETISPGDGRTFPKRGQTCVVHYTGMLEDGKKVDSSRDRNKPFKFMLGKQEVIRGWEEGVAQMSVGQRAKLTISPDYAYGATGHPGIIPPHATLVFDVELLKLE

CC[C@H](C(=O)N1CCCC[C@H]1C(=O)O[C@H](CCc1ccc(OC)c(OC)c1)c1ccccc1OCC(=O)NCCOCCOCCOCCNC(=O)C[C@@H]1N=C(c2ccc(Cl)cc2)c2c(sc(C)c2C)-n2c(C)nnc21)c1cc(OC)c(OC)c(OC)c1 [Cpd1, (R)-1-(2-((17-((S)-4-(4-Chlorophenyl)-2,3,9-trimethyl-6H-thieno[3,2-f][1,2,4]triazolo[4,3-a][1,4]diazepin-6-yl)-2,16-dioxo-6,9,12-trioxa-3,15-diazaheptadecyl)oxy)phenyl)-3-(3,4-dimethoxyphenyl)propyl (S)-1-((S)-2-(3,4,5-trimethoxyphenyl)butanoyl)piperidine-2-carboxylate]
competitive displacement of dTAG-13 (FKBP12F36V cellular target engagement) (NLuc-FKBP12F36V): competitive displacement of dTAG-13
BRD4 labeling and rescue (immunoblot of streptavidin pulldown) (BRD4): high BRD4-labeling and rescue
